Laboratory results published in patent US20170224819A1, “Therapeutic Combinations of a BTK Inhibitor, a PI3K Inhibitor, a JAK-2 Inhibitor, and/or a CDK 4/6 Inhibitor” (Acerta Pharma B.V., priority 2014, published 2017).
“Also recorded” adds a separate entry of the source.

Key:
[1] = test system: B cell receptor signals (CD69); assay: Whole blood B cell receptor signaling, anti-IgD stimulated CD69 on CD19+ B cells; format: cell-based; conditions: whole blood of four healthy donors, 2 hours incubation, anti-human IgD 18 hours
Method: Blood from four healthy donors was incubated for 2 hours with the compounds shown over a concentration range, and then stimulated with anti-human IgD [10 μg/mL] for 18 hours. The mean fluorescent intensity (MFI) of CD69 (and CD86, data not shown) on gated CD19+ B cells was measured by flow cytometry.

[2] = test system: human platelet-mediated thrombosis; assay: In vivo human thrombus formation in the VWF HA1 mice model (laser-induced injury); conditions: pretreated human platelets
Method: Constitutive or aberrant activation of the BCR signaling cascade has been implicated in the propagation and maintenance of a variety of B cell malignancies. […] J. Haematol. […] In fact, both Tec and BTK play an important role in the regulation of phospholipase Cγ2 (PLCγ2) downstream of the collagen receptor glycoprotein VI (GPVI) in human platelets. […] Biotechnol.
Injury to the vessel wall of arterioles ([…] diameter) was performed using a pulsed nitrogen dye laser (440 nm, Photonic Instruments) applied through a 20× water-immersion Olympus objective (LUMPlanFl, 0.5 numerical aperature (NA)) of a Zeiss Axiotech vario microscope. […] The extent of thrombus formation was assessed for 2 minutes after injury and the area (μm^2) of coverage determined (Image IQ, Andor Technology).
The BTK inhibitor-treated human platelets were fluorescently labeled and infused continuously through a catheter inserted into the femoral artery.

[3] = test system: GPVI platelet aggregation; assay: GPVI (convulxin-induced) platelet aggregation; format: cell-based; conditions: human platelets
Method: GPVI platelet aggregation was measured for Formula (XVIII) and Formula XX-A (ibrutinib). Blood was obtained from untreated humans, and platelets were purified from […] by centrifugation. Cells were resuspended to a final concentration of 350,000/μL in buffer containing 145 mmol/L NaCl, 10 mmol/L HEPES, 0.5 mmol/L Na2HPO4, 5 mmol/L KCl, 2 mmol/L MgCl2, 1 mmol/L CaCl2, and 0.1% glucose, at pH 7.4. Stock solutions of […] were prepared on the day of experimentation and added to platelet suspensions 5 minutes (37° C., 1200 rpm) before the induction of aggregation. Aggregation was assessed with a Chronolog Lumi-Aggregometer (model 540 VS; Chronolog, Havertown, Pa.) and permitted to proceed for 6 minutes after the addition of agonist. The results are reported as maximum percent change in light transmittance from baseline with platelet buffer used as a reference.
In FIG. 126, the results of CVX-induced (250 ng/mL) human platelet aggregation results before and 15 minutes after administration of the BTK inhibitors to 6 healthy individuals are shown.

[4] = test system: Raji cells; assay: Antibody-dependent NK cell-mediated cytotoxicity, chromium release assay; format: cell-based; conditions: 1 μM; chromium-labeled Raji cells, 4 hours, variable rituximab concentrations, effector:target ratio 25:1; FIG. 134

SMILES	EC50 [1] [nM]	Effect on human platelet-mediated thrombus formation [2]	GPVI platelet aggregation [3]	antibody-dependent NK cell-mediated cytotoxicity (percent lysis of tumor cells) [4]
C=CC(=O)Nc1cccc(Nc2nc(Nc3ccc(OCCOC)cc3)ncc2F)c1 [CC-292, N-(3-((5-fluoro-2-((4-(2-methoxyethoxy)phenyl)amino)pyrimidin-4-yl)amino)phenyl)acrylamide, reference compound]	121	interfere with thrombus formation; also recorded: showed an effect similar to Formula XX-A (ibrutinib)		
C=CC(=O)N1CCC[C@@H](n2nc(-c3ccc(Oc4ccccc4)cc3)c3c(N)ncnc32)C1 [ibrutinib, reference compound]			significantly inhibits GPVI platelet aggregation	antagonizes
